Data reported in ChEMBL document CHEMBL3046491, “cis-Configuration: a new tactic/rationale for neonicotinoid molecular design” (2011).

Experiments:
Type in all cases: functional
Nilaparvata lugens [1] = assay: Insecticidal activity against imidacloprid-sensitive Nilaparvata lugens (brown planthopper) assessed as drug concentration required to induce mortality per pest
Aphis craccivora [2] = assay: Insecticidal activity against Aphis craccivora (cowpea aphid) assessed as mortality at 500 mg/L
Nilaparvata lugens [3] = assay: Insecticidal activity against imidacloprid-resistant Nilaparvata lugens (brown planthopper) assessed as drug concentration required to induce mortality per pest
Nilaparvata lugens [4] = assay: Ratio of imidacloprid LC50 to compound LC50 for imidacloprid-resistant Nilaparvata lugens (brown planthopper)
Aphis craccivora [5] = assay: Insecticidal activity against Aphis craccivora (cowpea aphid) assessed as mortality

Compound	mortality at 500 µg/mL (Aphis craccivora [2]) [%]	other results
O=[N+]([O-])C1=C2N(Cc3ccc(Cl)nc3)CCN2[C@H]2CCC[C@@H]1O2	87	LC50 (Nilaparvata lugens [1]): 4.144 ng; LC50 (Nilaparvata lugens [3]): 18.9795 ng
O=[N+]([O-])C1=C2N(Cc3ccc(Cl)nc3)CCN2[C@H](c2ccco2)[C@@](C2=NCCN2Cc2ccc(Cl)nc2)([N+](=O)[O-])[C@@H]1c1ccco1	–	RatioLC50 (Nilaparvata lugens [4]): 10
CCCN1CC([N+](=O)[O-])=C2N(CC3COCO3)CCN2C1 (centres undefined)	0	–
O=[N+]([O-])C1=C2N(CC3COCO3)CCN2CN(CCO)C1 (centres undefined)	0	–
CN1CC([N+](=O)[O-])=C2N(CC3COCO3)CCN2C1 (centres undefined)	0	–
CCCN1CC([N+](=O)[O-])=C2N(Cc3ccc(Cl)nc3)C[C@H]3CCC[C@H]3N2C1 (relative stereo)	30	–
O=[N+]([O-])C1=C2N(Cc3ccc(Cl)nc3)CCN2[C@H](c2ccco2)[C@@](C2=NCCN2Cc2ccc(Cl)nc2)([N+](=O)[O-])[C@H]1c1ccco1	87	–
CCCCN1CC([N+](=O)[O-])=C2N(CC3COCO3)CCN2C1 (centres undefined)	0	–
Cl.O=[N+]([O-])/C(=C\c1ccco1)C1=NCCN1Cc1ccc(Cl)nc1	–	RatioLC50 (Nilaparvata lugens [4]): 30; LC50 (Nilaparvata lugens [3]): 0.7312 ng
CCN1CC([N+](=O)[O-])=C2N(CC3COCO3)CCN2C1 (centres undefined)	0	–
O=[N+]([O-])C1=C2N(Cc3ccc(Cl)nc3)C[C@H]3CCC[C@H]3N2CN(CCO)C1 (relative stereo)	30	–
CCCCN1CC([N+](=O)[O-])=C2N(Cc3ccc(Cl)nc3)C[C@H]3CCC[C@H]3N2C1 (relative stereo)	30	–
CN1CC([N+](=O)[O-])=C2N(Cc3ccc(Cl)nc3)C[C@H]3CCC[C@H]3N2C1	30	–
CC(C)N1CC([N+](=O)[O-])=C2N(Cc3ccc(Cl)nc3)C[C@H]3CCC[C@H]3N2C1 (relative stereo)	30	–
CCN1CC([N+](=O)[O-])=C2N(Cc3ccc(Cl)nc3)C[C@H]3CCC[C@H]3N2C1 (relative stereo)	30	–
CC(C)N1CC([N+](=O)[O-])=C2N(CC3COCO3)CCN2C1 (centres undefined)	0	–
O=[N+]([O-])C1=C2N(Cc3ccc(Cl)nc3)CCN2[C@@H]2CC[C@H]1O2	–	LC50 (Nilaparvata lugens [1]): 0.0742 ng; RatioLC50 (Nilaparvata lugens [4]): 50; LC50 (Nilaparvata lugens [3]): 0.4925 ng
O=[N+]([O-])/N=C1\NCCN1Cc1ccc(Cl)nc1 [IMIDACLOPRID]	–	LC50 (Aphis craccivora [5]): 31 µM; LC50 (Nilaparvata lugens [3]): 22.1614 ng
